From ChEMBL document CHEMBL3045726, “Fungicidal Activity of Pyrazolylpyrimidines” (1990) come the findings set out here.

Structures are written as SMILES. ≈ marks a conversion by molar mass, not a printed value. Where only a bound is given, the exact number is not on record here.

What all share (assay type): functional
For assay [1], the system named is Pyricularia oryzae. In words: Fungicidal activity against Magnaporthe oryzae by agar dilution method. In general terms: In agar dilution, organisms are placed on agar that contains the substance at set levels.
The subject of assay [2] is Pyricularia oryzae. The assay can be described thus: Fungicidal activity against Magnaporthe oryzae in rice seedlings assessed as control of rice blast at 500 ppm by curative foliar treatment.
Assay [3] deals with Nakataea oryzae. The assay can be described thus: Fungicidal activity against Magnaporthe salvinii by agar dilution method.
For assay [4], the system named is Pyricularia oryzae. In words: Fungicidal activity against Magnaporthe oryzae in rice seedlings assessed as control of rice blast at 500 ppm by preventive foliar treatment.

In the case of `Cc1cc(C)n(-c2nc(O)nc(O)n2)n1`, the MIC in assay [1] and in assay [3] was > 100 µg/mL throughout. For the same molecule, the Activity in assay [2] turned out to be 31%.
For the molecule `CCc1cc(CC)n(-c2nc(C)cc(C)n2)n1`, the MIC in assay [1] and in assay [3] was 25 µg/mL (≈ 109 µM) throughout. Besides, the Activity in assay [4] turned out to be 40%; in assay [2], 100%.
`CCc1cc(C)n(-c2nccc(C)n2)n1`: the MIC (usually the lowest concentration found to suppress growth) in assay [1] is 25 µg/mL (≈ 124 µM); in assay [3] it was 50 µg/mL (≈ 247 µM). Besides, the Activity in assay [4] is given as 84%; in assay [2], 98%.
Regarding `Cc1cc(C)nc(-n2nc(C)cc2C(F)(F)F)n1`, the MIC in assay [1] and in assay [3] was > 100 µg/mL each time. Besides, the figures for the Activity in assay [4] and in assay [2] were 53% and 0%, respectively.
Turning to `CCCc1cc(CCC)n(-c2nc(C)cc(C)n2)n1`, the MIC in assay [1] is 12.5 µg/mL (≈ 48.4 µM); in assay [3], 6.25 µg/mL (≈ 24.2 µM). For the same molecule, the Activity in assay [4] was 40%; in assay [2], 100%.
As to `Cc1cc(C)n(-c2nc3ccccc3s2)n1`, the MIC in assay [1] and in assay [3] was > 100 µg/mL throughout. For the same molecule, the results for the Activity in assay [4] and in assay [2] were 40% and 31%, respectively.
With `Cc1cc(C)n(-c2nc(C)c3ccccc3n2)n1`, the figures for the MIC in assay [1] and in assay [3] were 25 µg/mL (≈ 105 µM) and 6.25 µg/mL (≈ 26.2 µM), respectively. Also, the Activity in assay [4] was found to be 71%; in assay [2], 98%.
For `Cc1cc(C)nc(-n2ncc3ccccc32)n1`, the MIC is 50 µg/mL (≈ 223 µM) in assay [1] and 25 µg/mL (≈ 111 µM) in assay [3]. For the same molecule, the Activity is 31% in assay [4] and 96% in assay [2].
The matching figures for `Cc1nc(-n2nc(C)c(Br)c2C)nc(O)c1Br`: 50 µg/mL (≈ 138 µM), 25 µg/mL (≈ 69.1 µM), 40% and 31%.
For `Cc1nc(-n2nc(C)c(C)c2C)nc(C)c1C`, in that order: 50 µg/mL (≈ 217 µM), 50 µg/mL (≈ 217 µM), 81% and 99%.
As for `Cc1cc(C)nc(-n2nc(-c3ccccc3)cc2-c2ccccc2)n1`, the MIC in assay [1] and in assay [3] was > 100 µg/mL in each case. Further, the values for the Activity in assay [4] and in assay [2] were 31% and 40%, respectively.
`Cc1cc(C)nc(-n2nc(C)cc2C)n1`: the MIC in assay [1] was > 100 µg/mL; in assay [3], 100 µg/mL (≈ 494 µM). Further, the values for the Activity in assay [4] and in assay [2] were 99% and 100%, respectively.
For `Cc1cc(C)n(-c2ncccn2)n1`, in that order: > 100 µg/mL, > 100 µg/mL, 78% and 73%.
For `Cc1cc(C)n(-c2ccc3ccccc3n2)n1`, in that order: 100 µg/mL (≈ 448 µM), 25 µg/mL (≈ 112 µM), 31% and 60%.
For the molecule `Cc1cc(C)nc(-n2ccnc2C)n1`, the MIC in assay [1] and in assay [3] was > 100 µg/mL each time. The Activity in assay [4] came to 59%; in assay [2] it was 40%.
As to `Cc1cc(C)nc(-n2cccn2)n1`, the MIC in assay [1] and in assay [3] was > 100 µg/mL throughout. In addition, the Activity in assay [4] was 41%; in assay [2], 40%.
On to `COc1cc(C)nn1-c1nc(C)cc(C)n1`, for which the minimum inhibitory concentration (MIC) in assay [1] and in assay [3] was > 100 µg/mL each time. In addition, the Activity in assay [4] and in assay [2] was 40% in each case.
Consider `Cc1cc(C)nc(-n2nc(C)c(Br)c2C)n1`, for which the MIC in assay [1] and in assay [3] was 50 µg/mL (≈ 178 µM) each time. Besides, the values for the Activity in assay [4] and in assay [2] were 65% and 96%, respectively.
Regarding `Cc1cc(C)n(-c2ncc3ccccc3n2)n1`, the MIC in assay [1] and in assay [3] was 25 µg/mL (≈ 111 µM) throughout. For the same molecule, the Activity in assay [4] is 84%; in assay [2], 99%.
As for `CCCc1c(C)nn(-c2nc(C)cc(C)n2)c1C`, the MIC in assay [1] worked out at 25 µg/mL (≈ 102 µM); in assay [3] it was 12.5 µg/mL (≈ 51.2 µM). Besides, the Activity was found to be 90% in assay [4] and 98% in assay [2].
The matching figures for `Cc1cc(C)nc(-n2nc(C(F)(F)F)cc2-c2ccccc2)n1`: 100 µg/mL (≈ 314 µM), > 100 µg/mL, 74% and 53%.
Consider `Cc1cc(C)nc(-n2nc(C)cc2-c2ccccc2)n1`, for which, in assay [1], inhibition of growth (MIC) required 100 µg/mL (≈ 378 µM). The Activity in assay [4] turned out to be 67%; in assay [2] it was 27%.
Regarding `CCc1cc(C)n(-c2ncccn2)n1`, the MIC in assay [1] and in assay [3] was > 100 µg/mL throughout. Further, the results for the Activity in assay [4] and in assay [2] were 74% and 93%, respectively.
Take `Cc1cc(C)n(-c2nc(C)c(C)s2)n1`: the MIC in assay [1] and in assay [3] was > 100 µg/mL throughout. Besides, the values for the Activity in assay [4] and in assay [2] were 0% and 15%, respectively.
With `Cc1cc(C)n(C2=NS(=O)(=O)c3ccccc32)n1`, the MIC in assay [1] and in assay [3] was > 100 µg/mL each time. For the same molecule, the Activity in assay [4] is on record as 31%; in assay [2] it was 0%.
Consider `Cc1cc(C)n(-c2nc3ccccc3c(=O)[nH]2)n1`, for which the lowest concentration to inhibit growth in assay [1] (MIC) was 0.78 µg/mL (≈ 3.25 µM). The Activity came out at 40% in assay [4] and 85% in assay [2].
As for `Cc1cc(C)nc(-n2nc(C)nc2C)n1`, the MIC in assay [1] and in assay [3] was > 100 µg/mL throughout. Also, the Activity in assay [4] came out at 81%; in assay [2] it was 0%.
As for `CCc1cc(CC)n(-c2ncccn2)n1`, the MIC is 100 µg/mL (≈ 494 µM) in assay [1] and > 100 µg/mL in assay [3]. Further, the Activity in assay [4] is 90%; in assay [2], 100%.
For `COc1cc(C)nc(-n2nc(C)cc2C)n1`, in that order: 50 µg/mL (≈ 229 µM), 100 µg/mL (≈ 458 µM), 81% and 96%.
For `CCNc1nc(NCC)nc(-n2nc(C)cc2C)n1`, the MIC in assay [1] was found to be 50 µg/mL (≈ 191 µM); in assay [3], 25 µg/mL (≈ 95.7 µM). Moreover, the results for the Activity in assay [4] and in assay [2] were 100% and 81%, respectively.
Regarding `CCc1c(C)nn(-c2nc(C)cc(C)n2)c1C`, the MIC in assay [1] and in assay [3] was 50 µg/mL (≈ 217 µM) each time. Also, the Activity in assay [4] and in assay [2] was 100% in each case.
With `Cc1cc(C)n(-c2cc(C)c3ccccc3n2)n1`, the MIC in assay [1] and in assay [3] was > 100 µg/mL throughout. For the same molecule, the Activity in assay [4] was determined as 81%; in assay [2] it was 69%.
Consider `Cc1cc(C)n(-c2nc3ccccc3[nH]2)n1`, for which the results for the minimum inhibitory concentration (MIC) in assay [1] and in assay [3] were 100 µg/mL (≈ 471 µM) and 25 µg/mL (≈ 118 µM), respectively. Further, the Activity in assay [2] worked out at 0%.
For `Cc1cc(C)n(-c2nc(C)c(C)c(C)n2)n1`, the MIC in assay [1] was 50 µg/mL (≈ 231 µM); in assay [3], 100 µg/mL (≈ 462 µM). Also, the Activity in assay [4] turned out to be 65%; in assay [2] it was 78%.
With `Cc1cc(C)n(-c2ncncn2)n1`, the MIC in assay [1] and in assay [3] was > 100 µg/mL in each case. Also, the Activity worked out at 59% in assay [4] and 50% in assay [2].
Regarding `Cc1ccnc(-n2nc(C)cc2C)n1`, the MIC in assay [1] and in assay [3] was > 100 µg/mL each time. For the same molecule, the Activity in assay [4] came to 78%; in assay [2], 96%.
On to `Cc1cc(C)nc(-n2ccc(C)n2)n1`, for which the MIC in assay [1] and in assay [3] was > 100 µg/mL throughout. For the same molecule, the Activity in assay [4] and in assay [2] was 69% each time.
For the molecule `Cc1cc(C)nc(-n2nc(C(C)C)cc2C(C)C)n1`, the MIC in assay [1] and in assay [3] was 6.25 µg/mL (≈ 24.2 µM) in each case. In addition, the Activity in assay [4] is 31%; in assay [2], 100%.
In the case of `Cc1cc(C)nc(-n2cc(C)nc2C)n1`, the MIC in assay [1] and in assay [3] was > 100 µg/mL each time. Besides, the Activity in assay [4] is recorded as 59%; in assay [2], 0%.
As to `Cc1cc(C)n(-c2ccc(O)nn2)n1`, the MIC in assay [1] was 100 µg/mL (≈ 526 µM); in assay [3], > 100 µg/mL. The figures for the Activity in assay [4] and in assay [2] were 29% and 0%, respectively.
The matching figures for `Cc1ccnc(-n2nc(C)c(C)c2C)n1`: 50 µg/mL (≈ 247 µM), 50 µg/mL (≈ 247 µM), 63% and 100%.
`Cc1cc(C)nc(-n2nc(C(C)(C)C)cc2C(C)(C)C)n1`: the MIC in assay [1] and in assay [3] was > 100 µg/mL throughout. Besides, the Activity in assay [4] is recorded as 69%; in assay [2], 89%.
`Cc1cc(C)nc(-n2nc(C)c(C)c2C)n1`: the MIC in assay [1] came to 100 µg/mL (≈ 462 µM); in assay [3], 50 µg/mL (≈ 231 µM). Also, the figures for the Activity in assay [4] and in assay [2] were 81% and 99%, respectively.
For `Cc1cc(C)nc(-n2nc(C)c(Cl)c2C)n1`, in that order: 50 µg/mL (≈ 211 µM), 50 µg/mL (≈ 211 µM), 29% and 99%.
The matching figures for `CC(=O)c1c(C)nn(-c2nc(C)cc(C)n2)c1C`: > 100 µg/mL, > 100 µg/mL, 40% and 84%.
As to `Cc1cc(C)nc(-n2nc(C)c(CC(C)C)c2C)n1`, the MIC in assay [1] and in assay [3] was 6.25 µg/mL (≈ 24.2 µM) each time. Moreover, the results for the Activity in assay [4] and in assay [2] were 90% and 100%, respectively.
For the molecule `COc1cc(C)nc(-n2nc(C)cc2OC)n1` [EPIRIZOLE], the MIC in assay [1] and in assay [3] was > 100 µg/mL each time. Besides, the Activity in assay [2] is recorded as 89%.
On to `Cc1cc(C)n(-c2nc(Cl)nc(Cl)n2)n1`, for which the MIC in assay [1] and in assay [3] was > 100 µg/mL throughout. Also, the Activity in assay [4] and in assay [2] was 100% in each case.
Consider `CCOC(=O)c1c(C)nn(-c2nc(C)cc(C)n2)c1C`, for which the MIC in assay [1] and in assay [3] was > 100 µg/mL throughout. Moreover, the Activity in assay [4] worked out at 69%; in assay [2], 85%.
In the case of `Cc1cc(C)n(-c2nc(C)c(Cl)c(C)n2)n1`, the MIC in assay [1] is 50 µg/mL (≈ 211 µM); in assay [3] it was 25 µg/mL (≈ 106 µM). In addition, the results for the Activity in assay [4] and in assay [2] were 94% and 100%, respectively.
